Measurements reported in ChEMBL document CHEMBL3044878, “The interference between metformin treatment and TSH level in euthyroid type 2 diabetic patients” (Med Chem Res, 2013).
Calls of active or inactive are those of the source. The calls are words filed in the database; no cut-off is given here.

What was measured:
Type in all cases: functional, organism-based
[1] = species: Homo sapiens; test: Effect on FT4 level in diabetic obese pateint by ELISA relative to untreated obese insulin-resistant control
[2] = species: Homo sapiens; test: Effect on FT4 level in diabetic non-obese pateint by ELISA relative to untreated obese insulin-resistant control
[3] = species: Homo sapiens; test: Effect on FT4 level in diabetic obese pateint by ELISA relative to untreated healthy control
[4] = species: Homo sapiens; test: Effect on FT4 level in diabetic non-obese pateint by ELISA relative to untreated healthy control
[5] = species: Homo sapiens; test: Effect on TSH level in diabetic obese pateint by ELISA relative to untreated healthy control
[6] = species: Homo sapiens; test: Decrease in TSH level in diabetic non-obese pateint by ELISA relative to untreated obese insulin-resistant control
[7] = species: Homo sapiens; test: Effect on TSH level in diabetic non-obese pateint by ELISA relative to untreated healthy control

Compound: CN(C)C(=N)NC(=N)N
- Activity [1]: inactive
- Activity [2]: inactive
- Activity [3]: inactive
- Activity [4]: inactive
- Activity [5]: inactive
- Activity [6]: Active
- Activity [7]: inactive
